Values of other authors, collected in US10029020B2, “Fullerene compositions” (UNIVERSITEIT GENT, priority 2015, dated 2018).

How the values were obtained:
rats = details: regular administration; Moussa et al., Biomaterials 2012

c12c3c4c5c1c1c6c7c2c2c8c3c3c9c4c4c%10c5c5c1c1c6c6c%11c7c2c2c7c8c3c3c8c9c4c4c9c%10c5c5c1c1c6c6c%11c2c2c7c3c3c8c4c4c9c5c1c1c6c2c3c41 [Polymer C60, buckminsterfullerene (C60)]
water solubility: 10^−8 ng/L
lifespan of rats (rats): doubled
